Laboratory results as given in publication PMC4465272 (eNeuro, 2015).
“Also recorded” adds a separate entry of the source. Read-outs that look alike come from different tables or passages of the source.

Tests used:
animal pain models = details: in vivo, iv; cited from earlier work
[1] = tested on: CaV current in rat sensory neurons (DRG); test: cells; assay type: cell-based, rat (adult male Sprague Dawley); details: for inhibition at 30 µM: Rattus norvegicus, Neuron
[2] = tested on: eEPSCs in the dorsal horn of rat spinal cord; details: cited from earlier work
[3] = tested on: model of peripheral neuropathy in the rat; details: ref Franek et al., 2004; cited from earlier work
From the text: Furthermore, GABAB receptor activation inhibits the activity of N-type CaV channels (CaV2.2) and inhibition of N-type channels expressed by nocicept ...

Molecule | effect on neuropathic pain (animal pain models) | sensory neurons with CaV current inhibited by baclofen [1] [%] | voltage dependence of CaV current inhibition [1] | inhibition at 30 µM ([1]; read-out: CaV current inhibition in the neuron with the largest Vc1.1 and RgIA response) [%] | inhibition at 30 µM ([1]; read-out: CaV current inhibition in the neuron with the largest baclofen response) [%] | inhibition at 30 µM ([1]; read-out: baclofen-induced CaV current inhibition in seven other neurons) [%] | inhibition at 30 µM ([1]; read-out: postpulse CaV current inhibition) [%] | inhibition at 30 µM ([1]; read-out: prepulse CaV current inhibition) [%] | effect on eEPSCs / EPSPs in dorsal horn [2] | analgesic effect [3]
ziconotide [reference compound] | did not decrease neuropathic pain |  |  |  |  |  |  |  |  | 
NCC(CC(=O)O)c1ccc(Cl)cc1 (stereo not shown) [baclofen, reference compound] |  | 95 | voltage-dependent | 22 | 34 | 20 to 24 | 12 ± 5.5 | 19.2 ± 6.8 | strongly inhibited; also recorded: almost completely blocked | analgesic effects
